The supplement of paper PMC10307832

Tests used:
Test in all cases: relative viability (nuclei count vs DMSO), 5 days (fraction); higher = more cells survive
[1] = compound: C[C@@]1(C(=O)Nc2ccc(F)nc2)CCCN1c1nc(Nc2cc(C3CC3)n[nH]2)c2cccn2n1 + CC(=O)Nc1cccc(-n2c(=O)n(C3CC3)c(=O)c3c(Nc4ccc(I)cc4F)n(C)c(=O)c(C)c32)c1 [Trametinib] (partner 0.02 µM)
In short: (§1)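 Relative viability divides the nuclei count in treated wells by that in vehicle wells. Lung cancer cell lines were seeded in 1536-well plates, dosed by pin tool the next day, and fixed and stained after 5 days in one step with final 0.05% Triton X-100, 1% formaldehyde and 1 ug/ml Hoechst. Dosing was a single drug or a fixed anchor-drug dose plus five library-drug doses (not always all listed) in √10 steps, and values are medians of duplicate plates imaged at 4×.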

[2] = compound: C[C@@]1(C(=O)Nc2ccc(F)nc2)CCCN1c1nc(Nc2cc(C3CC3)n[nH]2)c2cccn2n1 + CC(=O)c1c(C)c2cnc(Nc3ccc(N4CCNCC4)cn3)nc2n(C2CCCC2)c1=O [Palbociclib] (partner 0.5 µM)
In short: as §1

[3] = compound: C[C@@]1(C(=O)Nc2ccc(F)nc2)CCCN1c1nc(Nc2cc(C3CC3)n[nH]2)c2cccn2n1 + O=C(CCCCCCC(=O)Nc1ccccc1)NO [Vorinostat] (partner 1 µM)
In short: as §1

Motesanib + Crizotinib = compound: CC1(C)CNc2cc(NC(=O)c3cccnc3NCc3ccncc3)ccc21 [Motesanib] + C[C@@H](Oc1cc(-c2cnn(C3CCNCC3)c2)cnc1N)c1c(Cl)ccc(F)c1Cl [Crizotinib] (partner 1 µM)
In short: as §1

With UMC-11 as the cell line, how does the relative viability ([1]; first compound 0.04 µM) read?
The relative viability was 0.703.

And the relative viability ([1]; first compound 0.1265 µM)?
Its relative viability is 0.671.

And the relative viability ([1]; first compound 0.4 µM)?
The relative viability was 0.651.

And the relative viability ([1]; first compound 1.265 µM)?
Its relative viability is 0.648.

And the relative viability ([2]; first compound 0.04 µM)?
The relative viability was 0.31.

And the relative viability ([2]; first compound 0.1265 µM)?
The relative viability was 0.312.

And the relative viability ([2]; first compound 0.4 µM)?
The relative viability was 0.32.

And the relative viability ([2]; first compound 1.265 µM)?
Its relative viability is 0.273.

What about the relative viability ([3]; first compound 0.04 µM) of the same cell line?
Its relative viability is 0.398.

What about the relative viability ([3]; first compound 0.1265 µM) of the same cell line?
Its relative viability is 0.432.

What about the relative viability ([3]; first compound 0.4 µM) of the same cell line?
Its relative viability is 0.359.

And the relative viability ([3]; first compound 1.265 µM)?
Its relative viability is 0.258.

What about the relative viability (Motesanib + Crizotinib; first compound 0.01 µM) of the same cell line?
The relative viability was 0.526.

And the relative viability (Motesanib + Crizotinib; first compound 0.03162 µM)?
Its relative viability is 0.657.

What about the relative viability (Motesanib + Crizotinib; first compound 0.1 µM) of the same cell line?
Its relative viability is 0.631.

And the relative viability (Motesanib + Crizotinib; first compound 0.3162 µM)?
Its relative viability is 0.595.

And the relative viability (Motesanib + Crizotinib; first compound 1 µM)?
Its relative viability is 0.742.
